Patent publication US9273017B2, “(Thio)morpholine derivatives as S1P modulators” (ABBVIE BAHAMAS LIMITED, priority 2009, dated 2016)
Counter-ions that a name gives are not always drawn.

How the values were obtained:
[1] = target: T1, human S1P5 receptor (Homo sapiens, UniProt Q9H228); test: In vitro functional activity (agonism), CHO-human-S1P5-Aequorin assay; format: cell-based; details: for EC50: read-out: S1P5 pEC50 (converted)
T1 construct: host or cells: CHO (AequoScreen recombinant cell line, co-expressing mitochondrially targeted apo-aequorin)
Excerpt: In Vitro Functional Activity (Agonism) on Human S1P5 Receptors
(§1) The CHO-human-S1P5-Aeqorin assay was bought from Euroscreen, Brussels (Euroscreen, Technical dossier, Human Lysophospholid S1P5 (Edg8) receptor, DNA clone and CHO AequoScreen™ recombinant cell-line, catalog no: ES-593-A, September 2006). Human-S1P5-Aequorin cells express mitochondrial targeted apo-Aequorin. Cells have to be loaded with coelanterazine, in order to reconstitute active Aequorin. After binding of agonists to the human S1P5 receptor the intracellular calcium concentration increases and binding of calcium to the apo-Aequorin/coelenterazine complex leads to an oxidation reaction of coelenterazine, which results in the production of apo-Aequorin, coelenteramide, CO2 and light (λmax 469 nm). This luminescent response is dependent on the agonist concentration. Luminescence is measured using the MicroBeta Jet (Perkin Elmer). Agonistic effects of compounds are expressed as pEC50. Compounds were tested at a 10 points half log concentration range, and 3 independent experiments were performed in single point's measurements.

[2] = target: T2, human S1P3 receptor (Homo sapiens, UniProt Q99500); test: In vitro functional activity (agonism), CHO-human-S1P3-Aequorin assay; format: cell-based; details: for EC50: read-out: S1P3 pEC50 (converted)
T2 construct: cell line established at Solvay Pharmaceuticals; host or cells: CHO K1 (CHO/Gα16/AEQ/h-S1P3)
Excerpt: In Vitro Functional Activity (Agonism) on Human S1P3 Receptors
The CHO-human-S1P3-Aeqorin assay (CHO/Gα16/AEQ/h-S1P3) was established at Solvay Pharmaceuticals. The plasmid DNA coding for the S1P3 receptor (accession number in GenBank NM_005226 was purchased from UMR cDNA resource Centre (Rolla, Mo.). The pcDNA3.1/hS1P3 construct carrying the mitochondrially targeted apo-Aeqorin and Gα16 protein was transfected in CHO K1 cell-line.
as §1, with “Human-S1P3-Aequorin” for “The CHO-human-S1P5-Aeqorin assay was bought from Euroscreen, Brussels (Euroscreen, Technical dossier, Human Lysophospholid S1P5 (Edg8) receptor, DNA clone and CHO AequoScreen™ recombinant cell-line, catalog no: ES-593-A, September 2006). Human-S1P5-Aequorin”, “S1P3” for “S1P5”

T1 sequence (Q9H228 whole entry): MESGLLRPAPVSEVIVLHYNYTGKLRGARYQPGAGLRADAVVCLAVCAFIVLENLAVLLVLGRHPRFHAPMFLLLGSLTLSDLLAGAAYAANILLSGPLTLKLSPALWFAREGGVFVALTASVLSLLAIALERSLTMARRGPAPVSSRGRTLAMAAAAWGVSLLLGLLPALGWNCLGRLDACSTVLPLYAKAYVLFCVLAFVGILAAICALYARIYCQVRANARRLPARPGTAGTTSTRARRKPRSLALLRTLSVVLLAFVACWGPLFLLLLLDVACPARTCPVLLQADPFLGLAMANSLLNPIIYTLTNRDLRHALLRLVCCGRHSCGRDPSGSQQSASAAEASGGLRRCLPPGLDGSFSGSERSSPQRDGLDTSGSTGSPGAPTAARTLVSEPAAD
T2 sequence (Q99500 whole entry): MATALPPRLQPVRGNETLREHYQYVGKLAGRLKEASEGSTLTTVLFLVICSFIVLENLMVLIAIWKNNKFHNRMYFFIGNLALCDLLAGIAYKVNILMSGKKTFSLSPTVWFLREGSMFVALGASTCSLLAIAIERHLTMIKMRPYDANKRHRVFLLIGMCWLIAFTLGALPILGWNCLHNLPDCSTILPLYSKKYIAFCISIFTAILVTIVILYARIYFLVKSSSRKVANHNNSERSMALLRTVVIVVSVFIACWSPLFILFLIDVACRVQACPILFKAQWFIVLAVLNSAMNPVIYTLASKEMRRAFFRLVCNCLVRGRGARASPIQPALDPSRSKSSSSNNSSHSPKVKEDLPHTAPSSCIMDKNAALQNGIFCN

Compound | melting point [°C] | EC50 [1] [µM] | EC50 [2] [µM] | other results
Cl.O=C(O)CCN1CCOC(c2ccc(OCc3ccccc3C(F)(F)F)c(Cl)c2)C1 (stereo not drawn) | 199 to 201 |  |  | 
Cl.O=C(O)CCN1CCOC(c2ccc(OCc3c(F)cccc3Cl)cc2F)C1 (stereo not drawn) | 189 to 190 |  |  | 
Cl.O=C(O)CCN1CCOC(c2ccc(OCc3ccccc3C(F)(F)F)cc2F)C1 (stereo not drawn) | 201 to 201.5 |  |  | 
Cl.O=C(O)CCN1CCOC(c2ccc(OCc3c(Cl)cccc3Cl)cc2C(F)(F)F)C1 (stereo not drawn) | 195 to 197 |  |  | 
CCCc1cc(Cl)c(COc2ccc(C3CN(CCC(=O)O)CCO3)cc2)c(Cl)c1.Cl (stereo not drawn) | 101 to 103 |  |  | 
CC(C)c1cc(Cl)c(COc2ccc(C3CN(CCC(=O)O)CCO3)cc2)c(Cl)c1.Cl (stereo not drawn) | 108 to 110 |  |  | 
CC#Cc1cc(Cl)c(COc2ccc(C3CN(CCC(=O)O)CCO3)cc2)c(Cl)c1.Cl (stereo not drawn) | 220 to 224 |  |  | 
Cl.O=C(O)CCN1CCOC(c2ccc(OCc3cccc(C(F)(F)F)c3)cc2C(F)(F)F)C1 (stereo not drawn) | 209 to 211 |  |  | 
CCc1cccc(Cl)c1COc1ccc(C2CN(CCC(=O)O)CCO2)c(C(F)(F)F)c1.Cl (stereo not drawn) | 214 to 215 |  |  | 
Cl.O=C(O)CCN1CCOC(c2ccc(OCc3c(Cl)cccc3OC(F)(F)F)cc2C(F)(F)F)C1 (stereo not drawn) | 179 to 182 |  |  | 
CC(C)c1cccc(Cl)c1COc1ccc(C2CN(CCC(=O)O)CCO2)c(C(F)(F)F)c1.Cl (stereo not drawn) | 206 to 210 |  |  | 
Cl.O=C(O)CCN1CCOC(c2ccc(OCc3c(F)cccc3Cl)cc2C(F)(F)F)C1 (stereo not drawn) | 171.5 to 172.5 |  |  | 
Cl.O=C(O)CCN1CCOC(c2ccc(OCc3c(Cl)cccc3C(F)(F)F)cc2C(F)(F)F)C1 (stereo not drawn) | 200 to 201 |  |  | 
Cl.O=C(O)CCN1CCOC(c2ccc(OCc3c(Cl)cccc3C3CC3)cc2C(F)(F)F)C1 (stereo not drawn) | 203 to 204 |  |  | 
Cl.O=C(O)CCN1CCOC(c2cccc(OCc3ccccc3)c2)C1 (stereo not drawn) | 222 to 225 |  |  | 
Cl.O=C(O)CCN1CCOC(c2cccc(OCc3c(Cl)cccc3Cl)c2)C1 (stereo not drawn) | 229 to 230 |  |  | 
Cl.O=C(O)CCN1CCOC(c2cccc(OCc3ccccc3Cl)c2)C1 (stereo not drawn) | 233 to 234 |  |  | 
Cl.O=C(O)CCN1CCSC(c2ccc(OCc3ccccc3Cl)cc2)C1 (stereo not drawn) | 178 to 182 |  |  | 
COc1cc(C2CN(CCC(=O)O)CCO2)ccc1OCc1c(F)cccc1Cl.Cl (stereo not drawn) | 169 to 171 |  |  | 
COc1cc(C2CN(CCC(=O)O)CCO2)ccc1OCc1c(Cl)cccc1Cl.Cl (stereo not drawn) | 214 to 216 |  |  | 
3-{2-[4-(2,6-Dichloro-benzyloxy)-phenyl]-morpholin-4-yl}-2,2-di-fluoro-propionic acid triethylammonium salt [Compound 150] |  |  |  | S1P5 pEC50 [1]: 6.2; S1P3 pEC50 [2]: <5.0

Compound | melting point [°C] | EC50 [1] [µM] | EC50 [2] [µM] | other results
O=C(O)CCN1CCOC(c2ccc(OCc3c(Cl)cccc3Cl)cc2)C1 (single isomer, unassigned; (+)) [Compound 34a, (+)-3-{2-[4-(2,6-Dichloro-benzyloxy)-phenyl]-morpholin-4-yl}-propionic acid hydrochloride] |  | 0.631 | > 31.6 | 
CCCc1ncc(OCCCOc2ccc(C3CN(CCC(=O)O)CCO3)cc2)s1 (stereo not drawn) [Compound 3, 3-(2-{4-[3-(2-Propyl-thiazol-5-yloxy)-propoxy]-phenyl}-morpholin-4-yl)-propionic acid trifluoroacetic acid salt] |  | 10 | 15.8 | 
O=C(O)CCN1CCOC(c2ccc(OCCCc3ccccc3)cc2)C1 (stereo not drawn) [Compound 16, 3-{2-[4-(3-Phenyl-propoxy)-phenyl]-morpholin-4-yl}-propionic acid trifluoroacetic acid salt] |  | 1 | 3.98 | 
O=C(O)CCN1CCOC(c2ccc(OCC3CCCCC3)cc2)C1 (stereo not drawn) [Compound 24, 3-[2-(4-Cyclohexylmethoxy-phenyl)-morpholin-4-yl]-propionic acid trifluoroacetic acid salt] |  | 0.631 | > 31.6 | 
O=C(O)CCN1CCOC(c2ccc(C(=O)Nc3c(Cl)cccc3Cl)cc2)C1 (stereo not drawn) [Compound 53, 3-{2-[4-(2,6-Dichloro-phenylcarbamoyl)-phenyl]-morpholin-4-yl}-propionic acid hydrochloride] |  | 2 | > 10 | 
Cc1cc(OCc2ccc3ccccc3c2)ccc1C1CN(CCC(=O)O)CCO1 (stereo not drawn) [Compound 76, 3-{2-[2-Methyl-4-(naphthalen-2-ylmethoxy)-phenyl]-morpholin-4-yl}-propionic acid] |  | 2.51 | > 10 | 
Cc1cc(OCC2CCC3CC2C3(C)C)ccc1C1CN(CCC(=O)O)CCO1 (stereo not drawn) [Compound 84, 3-{2-[4-(6,6-Dimethyl-bicyclo[3.1.1]hept-2-ylmethoxy)-2-methyl-phenyl]-morpholin-4-yl}-propionic acid] |  | 3.98 | > 10 | 
Cc1cc(OCc2cccc(Oc3ccccc3)c2)ccc1C1CN(CCC(=O)O)CCO1 (stereo not drawn) [Compound 92, 3-{2-[2-Methyl-4-(3-phenoxy-benzyloxy)-phenyl]-morpholin-4-yl}-propionic acid] |  | 5.01 | > 10 | 
Cc1cc(OCc2cccc(OCc3ccccc3)c2)ccc1C1CN(CCC(=O)O)CCO1 (stereo not drawn) [Compound 100, 3-{2-[4-(3-Benzyloxy-benzyloxy)-2-methyl-phenyl]-morpholin-4-yl}-propionic acid] |  | 3.98 | > 10 | 
CCCCc1ccc(COc2ccc(C3CN(CCC(=O)O)CCO3)c(C)c2)cc1 (stereo not drawn) [Compound 117, 3-{2-[4-(4-Butyl-benzyloxy)-2-methyl-phenyl]-morpholin-4-yl}-propionic acid] |  | 3.98 | > 10 | 
Cc1cc(OCc2ccc(C(C)(C)C)cc2)ccc1C1CN(CCC(=O)O)CCO1 (stereo not drawn) [Compound 127, 3-{2-[4-(4-tert-Butyl-benzyloxy)-2-methyl-phenyl]-morpholin-4-yl}-propionic acid] |  | 0.631 | > 10 | 
O=C(O)CCN1CCOC(c2ccc(OCc3c(Cl)cccc3Cl)c(C(F)(F)F)c2)C1 (stereo not drawn) [Compound 131, 3-{2-[4-(2,6-Dichloro-benzyloxy)-3-trifluoromethyl-phenyl]-morpholin-4-yl}-propionic acid trifluoroacetic acid salt] |  | 1 | > 10 | 
CCCCCCCCOc1ccc(C2CN(CCP(=O)(O)O)CCO2)cc1 (stereo not drawn) [Compound 137, {2-[2-(4-Octyloxy-phenyl)-morpholin-4-yl]-ethyl}-phosphonic acid] |  | 0.1 | 0.501 | 
Cc1cc(C2CN(CCC(=O)O)CCO2)ccc1OCc1c(F)cccc1Cl (stereo not drawn) [Compound 144, 3-{2-[4-(2-Chloro-6-fluoro-benzyloxy)-3-methyl-phenyl]-morpholin-4-yl}-propionic acid hydrochloride] |  | 0.631 | > 10 | 
CCc1cc(Cl)c(COc2ccc(C3CN(CCC(=O)O)CCO3)cc2)c(Cl)c1 (stereo not drawn) [Compound 164, 3-{2-[4-(2,6-Dichloro-4-ethyl-benzyloxy)-phenyl]-morpholin-4-yl}-propionic acid hydrochloride] |  | 0.316 | 2 | 
O=C(O)CCN1CCOC(c2ccc(OCCCc3cccc(F)c3F)cc2)C1 (stereo not drawn) [Compound 174, 3-(2-{4-[3-(2,3-Difluoro-phenyl)-propoxy]-phenyl}-morpholin-4-yl)-propionic acid hydrochloride] |  | 1.58 | 5.01 | 
CCCCCCCCOc1ccc(C2CN(CCC(=O)O)C(C)(C)CO2)cc1 (stereo not drawn) [Compound 187, 3-[5,5-Dimethyl-2-(4-octyloxy-phenyl)-morpholin-4-yl]-propionic acid hydrochloride] |  | 0.794 | 3.16 | 
Cc1ccc(COc2ccc(C3CN(CCC(=O)O)CCO3)cc2)c(Cl)c1 (stereo not drawn) [Compound 196, 3-{2-[4-(2-Chloro-4-methyl-benzyloxy)-phenyl]-morpholin-4-yl}-propionic acid hydrochloride] |  | 1 |  | 
CCCCCCCCSc1ccc(C2CN(CCC(=O)O)CCO2)cc1 (stereo not drawn) [Compound 204, 3-[2-(4-Octylsulfanyl-phenyl)-morpholin-4-yl]-propionic acid Hydrochloride] |  | 0.398 |  | 
O=C(O)CCN1CCOC(c2ccc(OC3CCc4ccccc43)cc2)C1 (stereo not drawn) [Compound 219, 3-{2-[4-(Indan-1-yloxy)-phenyl]-morpholin-4-yl}propionic acid] | 124 to 129.5 |  |  | 
O=C(O)CCN1CCOC(c2ccc(OC3COc4ccccc43)cc2)C1 (stereo not drawn) [Compound 221, 3-{2-[4-(2,3-Dihydro-benzofuran-3-yloxy)-phenyl]-morpholin-4-yl}-propionic acid] | 141.5 to 144.5 |  |  | 
